Source: patent publication US4160829A, “Antibacterial 1,2,4-oxadiazolylacetamido cephalosporins” (Gist-Brocades N.V., priority 1972, dated 1979)
Converted amounts (≈) assume the structure as drawn. Where two headings read alike, the source gives them in different places.

How the values were obtained:
[1] = tested on: Bac.Subt.ATCC 6633; test: agar serial dilution test; format: cell-based, Bacillus subtilis; conditions: Bacillus subtilis, ATCC6633, 24 h, agar serial dilution, 24 hours, 37° C.; read-out: minimal inhibitory concentration (MIC)
[2] = tested on: Staph.aureus A 321; test: agar serial dilution test; format: cell-based, Staphylococcus aureus; conditions: Staphylococcus aureus, A321, 24 h, agar serial dilution, 24 hours, 37° C.; read-out: minimal inhibitory concentration (MIC)
[3] = tested on: Staph.aureus A 2000; test: agar serial dilution test; format: cell-based, Staphylococcus aureus; conditions: Staphylococcus aureus, A2000, 24 h, agar serial dilution, 24 hours, 37° C.; read-out: minimal inhibitory concentration (MIC)
[4] = tested on: Staph.aureus A 2001; test: agar serial dilution test; format: cell-based, Staphylococcus aureus; conditions: Staphylococcus aureus, A2001, 24 h, agar serial dilution, 24 hours, 37° C.; read-out: minimal inhibitory concentration (MIC)
[5] = tested on: Strep. faec. L 80; test: agar serial dilution test; format: cell-based, Streptococcus faecalis; conditions: Enterococcus faecalis; agar serial dilution, 24 hours, 37° C.; read-out: minimal inhibitory concentration (MIC)
[6] = tested on: Dipl.pneum. L 54; test: agar serial dilution test; format: cell-based, Diplococcus pneumoniae; conditions: Streptococcus pneumoniae; agar serial dilution, 24 hours, 37° C.; read-out: minimal inhibitory concentration (MIC)
[7] = tested on: Bruc.melit. A 488; test: microbe, parasite or virus in culture; format: cell-based; conditions: Brucella melitensis, 24 h, read-out: minimal inhibitory concentration (MIC)
[8] = tested on: Past.multo. A 723; test: agar serial dilution test; format: cell-based, Pasteurella multocida; conditions: Pasteurella multocida; agar serial dilution, 24 hours, 37° C.; read-out: minimal inhibitory concentration (MIC)
[9] = tested on: Kleb.pneum. A 809; test: agar serial dilution test; format: cell-based, Klebsiella pneumoniae; conditions: Klebsiella pneumoniae; agar serial dilution, 24 hours, 37° C.; read-out: minimal inhibitory concentration (MIC)
[10] = tested on: Salm.dubl. P 43; test: agar serial dilution test; format: cell-based, Salmonella dublin; conditions: Salmonella enterica; agar serial dilution, 24 hours, 37° C.; read-out: minimal inhibitory concentration (MIC)
[11] = tested on: Salm.typh. R 127; test: agar serial dilution test; format: cell-based; conditions: 24 h, 37° C., read-out: minimal inhibitory concentration (MIC)
[12] = tested on: Esch.coli U 20; test: agar serial dilution test; format: cell-based, Escherichia coli; conditions: Escherichia coli
[13] = tested on: Shig.equir. T 3; test: agar serial dilution test; format: cell-based; conditions: 24 h, 37° C., read-out: minimal inhibitory concentration (MIC)
[14] = tested on: Pseud.aerug. H 10; test: agar serial dilution test; format: cell-based; conditions: agar serial dilution, 24 hours, 37° C.; read-out: minimal inhibitory concentration (MIC)
[15] = tested on: Pseud.aerug. 2396; test: agar serial dilution test; format: cell-based; conditions: agar serial dilution, 24 hours, 37° C.; read-out: minimal inhibitory concentration (MIC)
[16] = tested on: Pseud.aerug. Wyeth A 1058; test: agar serial dilution test; format: cell-based; conditions: agar serial dilution, 24 hours, 37° C.; read-out: minimal inhibitory concentration (MIC)
[17] = tested on: Prot.rettg. A 821; test: agar serial dilution test; format: cell-based, Proteus rettgeri; conditions: Providencia rettgeri, 24 h, read-out: minimal inhibitory concentration (MIC)
[18] = tested on: Prot.mirab. H 3; test: agar serial dilution test; format: cell-based, Proteus mirabilis; conditions: Proteus mirabilis; agar serial dilution, 24 hours, 37° C.; read-out: minimal inhibitory concentration (MIC)
[19] = tested on: Prot.mirab. L 93; test: agar serial dilution test; format: cell-based, Proteus mirabilis; conditions: Proteus mirabilis; agar serial dilution, 24 hours, 37° C.; read-out: minimal inhibitory concentration (MIC)
[20] = tested on: Prot.mirab. A 1200; test: agar serial dilution test; format: cell-based, Proteus mirabilis; conditions: Proteus mirabilis, 24 h, agar serial dilution, 24 hours, 37° C.; read-out: minimal inhibitory concentration (MIC)
[21] = tested on: Prot.morg. 2241; test: agar serial dilution test; format: cell-based; conditions: 24 h, agar serial dilution, 24 hours, 37° C.; read-out: minimal inhibitory concentration (MIC)
[22] = tested on: Staph.aureus A 355; test: micro serial dilution test; format: cell-based, Staphylococcus aureus; conditions: Staphylococcus aureus, A355; micro serial dilution (in brackets), about 18 hours, 30° C. or 37° C.; penicillinase-producing strain; read-out: minimal inhibitory concentration (MIC)
[23] = tested on: Staph.aureus A 2000; test: micro serial dilution test; format: cell-based, Staphylococcus aureus; conditions: Staphylococcus aureus, A2000, 18 h, micro serial dilution (in brackets), about 18 hours, 30° C. or 37° C.; read-out: minimal inhibitory concentration (MIC)
[24] = tested on: Staph.aureus A 2001; test: micro serial dilution test; format: cell-based, Staphylococcus aureus; conditions: Staphylococcus aureus, A2001, 18 h, micro serial dilution (in brackets), about 18 hours, 30° C. or 37° C.; read-out: minimal inhibitory concentration (MIC)
[25] = tested on: Strep.haem. A 266; test: micro serial dilution test; format: cell-based, Streptococcus haemolyticus; conditions: Streptococcus; micro serial dilution (in brackets), about 18 hours, 30° C. or 37° C.; read-out: minimal inhibitory concentration (MIC)
[26] = tested on: Haem.infl. A 1030; test: micro serial dilution test; format: cell-based; conditions: 18 h, micro serial dilution (in brackets), about 18 hours, 30° C. or 37° C.; read-out: minimal inhibitory concentration (MIC)
[27] = tested on: Staph.aureus A 355; test: agar serial dilution test; conditions: Staphylococcus aureus, A355, 24 h, read-out: minimal inhibitory concentration (MIC), agar serial dilution, 24 hours, 37° C.; penicillinase-producing strain
[28] = tested on: Strep.haem. A 266; test: agar serial dilution test; format: cell-based, Streptococcus haemolyticus; conditions: Streptococcus; agar serial dilution, 24 hours, 37° C.; read-out: minimal inhibitory concentration (MIC)
[29] = blood and urine contents after intramuscular administration in rabbits; format: in vivo, rabbits "Nieuw Zeelander"; conditions: rabbit, im, intramuscular 50 mg/kg
Experimental: (d) the blood and urine contents of the above-indicated compound G and of monosodium 7-[(3-carboxymethyl-1,2,4-oxadiazol-5-yl)acetamido]-3-acetoxymethyl-3-cephem-4-carboxylate (as prepared in example 35) were determined after intramuscular administration of these compounds in an aqueous solution in rabbits, as listed below:
test animals: rabbits "Nieuw Zeelander"
Each testgroup consisted of 3 rabbits.
Vehiculum: Physiol. saline solution
Bloodsamples were taken after 1/4--1/2--1--2--4 hours Urinesamples were taken after 1--3--6--24--27 hours (in practice only the secreted amounts after 6 and 24 hours were used).
Testorganisms: Bacillus subtilis ATCC 6633 and Bacillus callidolactis E 16.
The contents of the compounds in the samples were determined microbiologically.
(Only microbiologically detected concentrations, i.e. anti-bacterially active concentrations only have been indicated and determined in relation to the original administered compound).

[30] = U20, agar serial dilution, 24 hours, 37° C., read-out: minimal inhibitory concentration (MIC)
[31] = agar serial dilution, 24 hours, 37° C.

## CCc1noc(CC(=O)N[C@@H]2C(=O)N3[C@@H]2SC(C)(C)[C@@H]3C(=O)O)n1 [Example 11G, sodium 6-[(3-ethyl-1,2,4-oxadiazol-5-yl)-acetamido]-penicillanate H2 O]
[1]
  MIC: 0.03 µg/mL
[2]
  MIC: 0.12 µg/mL
[3]
  MIC: 1.5 µg/mL
[4]
  MIC: 1 µg/mL
[5]
  MIC: 3 µg/mL
[6]
  MIC: 0.25 µg/mL
[7]
  MIC: 1.5 µg/mL
[8]
  MIC: 1 µg/mL
[9]
  MIC: > 100 µg/mL
[10]
  MIC: 12.5 µg/mL
[11]
  MIC: 25 µg/mL
[12]; [30]
  MIC: 100 µg/mL
[13]
  MIC: 10 µg/mL
[14]
  MIC: > 100 µg/mL
[15]
  MIC: > 100 µg/mL
[16]
  MIC: > 100 µg/mL
[17]; [31]
  MIC: 3 µg/mL
[18]
  MIC: > 100 µg/mL
[19]
  MIC: 12.5 µg/mL
[20]
  MIC: 100 µg/mL
[21]
  MIC: > 100 µg/mL
[22]
  MIC: 30 µg/mL
[23]
  MIC: 23 µg/mL
[24]
  MIC: 3.7 µg/mL
[25]
  MIC: 0.5 µg/mL
[26]
  MIC: 125 µg/mL
[27]
  MIC: 3 µg/mL

## Cc1nc(CC(=O)N[C@@H]2C(=O)N3C(C(=O)O)=C(CN=[N+]=[N-])C[S+]([O-])[C@H]23)no1 (stereo partly drawn) [Example 19, R-sulfoxide of 7-[(5-methyl-1,2,4-oxadiazol-3-yl)-acetamido]-3-azidomethyl-3-cephem-4-carboxylic acid]
[1]
  MIC: 0.5 µg/mL (≈ 1.26 µM)
[2]
  MIC: 6 µg/mL (≈ 15.2 µM)
[3]
  MIC: 6 µg/mL (≈ 15.2 µM)
[4]
  MIC: 6 µg/mL (≈ 15.2 µM)
[28]
  MIC: 0.5 µg/mL (≈ 1.26 µM)
[5]
  MIC: > 100 µg/mL
[6]
  MIC: 3 µg/mL (≈ 7.59 µM)
[7]
  MIC: 6 µg/mL (≈ 15.2 µM)
[8]
  MIC: 25 µg/mL (≈ 63.2 µM)
[9]
  MIC: 50 µg/mL (≈ 126 µM)
[10]
  MIC: 25 µg/mL (≈ 63.2 µM)
[11]
  MIC: 100 µg/mL (≈ 253 µM)
[12]; [30]
  MIC: 100 µg/mL (≈ 253 µM)
[13]
  MIC: 6 µg/mL (≈ 15.2 µM)
[14]
  MIC: > 100 µg/mL
[15]
  MIC: > 100 µg/mL
[16]
  MIC: > 100 µg/mL
[17]; [31]
  MIC: 6 µg/mL (≈ 15.2 µM)
[18]
  MIC: 50 µg/mL (≈ 126 µM)
[19]
  MIC: 25 µg/mL (≈ 63.2 µM)
[20]
  MIC: > 100 µg/mL
[21]
  MIC: > 100 µg/mL
[22]
  MIC: 15 µg/mL (≈ 37.9 µM)
[23]
  MIC: 5 µg/mL (≈ 12.6 µM)
[24]
  MIC: 6 µg/mL (≈ 15.2 µM)
[26]
  MIC: 23 µg/mL (≈ 58.2 µM)
[27]
  MIC: 12.5 µg/mL (≈ 31.6 µM)

## C=CCNC(=O)Cc1nc(CC(=O)N[C@@H]2C(=O)N3C(C(=O)O)=C(COC(C)=O)CS[C@H]23)no1 [Example 31, 7-[5-(N-propen-3-yl)-carbamoylmethyl-1,2,4-oxadiazol-3-yl-acetamido]-cephalosporanic acid]
[1]
  MIC: 1 µg/mL (≈ 2.09 µM)
[2]
  MIC: 1.5 µg/mL (≈ 3.13 µM)
[3]
  MIC: 3 µg/mL (≈ 6.26 µM)
[4]
  MIC: 3 µg/mL (≈ 6.26 µM)
[5]
  MIC: 25 µg/mL (≈ 52.1 µM)
[6]
  MIC: 1.5 µg/mL (≈ 3.13 µM)
[8]
  MIC: 1.5 µg/mL (≈ 3.13 µM)
[9]
  MIC: 6 µg/mL (≈ 12.5 µM)
[10]
  MIC: 6 µg/mL (≈ 12.5 µM)
[11]
  MIC: 12.5 µg/mL (≈ 26.1 µM)
[12]; U20, 24 h, read-out: minimal inhibitory concentration (MIC), agar serial dilution, 24 hours, 37° C.
  MIC: 12.5 µg/mL (≈ 26.1 µM)
[13]
  MIC: 12.5 µg/mL (≈ 26.1 µM)
[14]
  MIC: > 100 µg/mL
[15]
  MIC: > 100 µg/mL
[16]
  MIC: > 100 µg/mL
[17]
  MIC: 12.5 µg/mL (≈ 26.1 µM)
[18]
  MIC: 25 µg/mL (≈ 52.1 µM)
[19]
  MIC: 6 µg/mL (≈ 12.5 µM)
[20]
  MIC: 25 µg/mL (≈ 52.1 µM)
[21]
  MIC: > 100 µg/mL
[22]
  MIC: 1.9 µg/mL (≈ 3.96 µM)
[23]
  MIC: 1.2 µg/mL (≈ 2.5 µM)
[24]
  MIC: 1.2 µg/mL (≈ 2.5 µM)
[25]
  MIC: 2.5 µg/mL (≈ 5.21 µM)
[26]
  MIC: ≥ 125 µg/mL
[27]
  MIC: 6 µg/mL (≈ 12.5 µM)

## CC(=O)OCC1=C(C(=O)O)N2C(=O)[C@@H](NC(=O)Cc3nc(CC(=O)O)no3)[C@H]2SC1 [Example 35, Monosodium 7-[3-carboxymethyl-1,2,4-oxadiazol-5-yl-acetamido]-cephalosporanate]
[29]; serum, after 1/2 hr, read-out: Serumlevel
  concentration at 0.5 h: 93.7 µg/mL
[29]; serum, after 1/4 hr, read-out: Serumlevel
  concentration at 0.25 h: 119 µg/mL
[29]; serum, after 1 hr, read-out: Serumlevel
  concentration at 1 h: 56 µg/mL
[29]; serum, after 2 hr, read-out: Serumlevel
  concentration at 2 h: 15.4 µg/mL
[29]; serum, after 4 hr, read-out: Serumlevel
  concentration at 4 h: 1.8 µg/mL
[29]; urine, after 6 hr, read-out: Secretion of compound in urine in % of the administered dose
  dose excreted at 6 h: 35.9%
[29]; urine, after 24 hr, read-out: Secretion of compound in urine in % of the administered dose
  dose excreted at 24 h: 51.4%
